Test results published in patent US6395737B1, “Malonic acid derivatives, processes for their preparation, for their use and pharmaceutical compositions containing them” (Aventis Pharma Deutschland GmbH, priority 1999, dated 2002).
pKi: −log10 of the molar value. Where two headings read alike, the source gives them in different places.

What was measured:
factor Xa [1] = biological target: T1, factor Xa (Homo sapiens, UniProt P00742); assay: In vitro Factor Xa assay (Test 1a), chromogenic substrate S-2765; type: biochemical; set-up: purchased Enzyme Research Laboratories, Inc; South Bend, Ind; conditions: Factor Xa inhibitory activity; Ki from IC50 corrected for substrate competition; 0.5 nM enzyme, 140 μM S-2765, 25° C.
From the text: The ability of a compound of formula I to inhibit factor Xa, thrombin, plasmin, elastase and trypsin may be assessed by determining the concentration of compound of formula I that inhibits enzyme activity by 50% (IC50). Purified enzymes are used in chromogenic assays. To determine the inhibition constant, the IC50 value is corrected for competition with substrate using the formula:
Ki=IC50×(1/{1+((substrate concentration)/substrate Km)})
where Km is the Michaelis-Menten-constant (Y.-C. Chen and W.H. Prusoff, Biochem. Pharmacol. 22: […] (1973), which is incorporated herein by reference).
TBS-PEG buffer (50 mM Tris-Cl, pH 7.8, 200 mM NaCl, 0.05% (w/v) PEG-8000, 0.02% (w/v) NaN3) is used for this assay. The IC50 is determined by combining in appropriate wells of a Costar half-area microtiter plate 25 μl human factor Xa (Enzyme Research Laboratories, Inc.; South Bend, Ind.) in TBS-PEG; 40 μl 10% (v/v) DMSO in TBS-PEG (uninhibited control) or various concentrations of the compound to be tested diluted in 10% (v/v) DMSO in TBS-PEG; and substrate S-2765 (N-benzyloxycarbonyl-D-Arg-Gly-L-Arg-p-nitroanilide; Kabi Pharmacia, Inc.; Franklin Ohio) in TBS-PEG.
The assays are performed by pre-incubating the compound of formula I plus enzyme for 10 min, then the assay is initiated by adding substrate to obtain a final volume of 100 μl. The initial velocity of chromogenic substrate hydrolysis is measured by the change in absorbance at 405 nm using a Bio-tek Instruments kinetic plate reader (Ceres UV900HDi) at 25° C. during the linear portion of the time course (usually 1.5 min after addition of substrate). The concentration of inhibitor that causes a 50% decrease in the rate of substrate hydrolysis is predicted by linear regression after plotting the relative rates of hydrolysis (compared to the uninhibited control) versus the log of the compound of formula I concentration. The enzyme concentration is 0.5 nM and substrate concentration is 140 μM.

factor Xa [2] = biological target: T1, factor Xa; conditions: cited from earlier work
thrombin and factor Xa = conditions: rate of inactivation, thrombin relative to factor Xa; cited from earlier work

T1 sequence (P00742 235-488 limits assumed): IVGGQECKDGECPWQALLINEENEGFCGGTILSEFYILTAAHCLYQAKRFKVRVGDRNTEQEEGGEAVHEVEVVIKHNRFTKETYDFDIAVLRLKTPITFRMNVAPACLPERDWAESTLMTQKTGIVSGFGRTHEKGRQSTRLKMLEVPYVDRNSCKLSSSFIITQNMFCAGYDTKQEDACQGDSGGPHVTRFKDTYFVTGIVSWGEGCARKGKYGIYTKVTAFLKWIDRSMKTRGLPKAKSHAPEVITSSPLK
T1 sequence (P00742 41-179 partner limits assumed): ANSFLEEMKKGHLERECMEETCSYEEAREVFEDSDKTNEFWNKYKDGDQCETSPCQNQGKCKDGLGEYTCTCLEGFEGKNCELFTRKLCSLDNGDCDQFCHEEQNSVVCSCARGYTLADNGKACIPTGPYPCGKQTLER

Compound | melting point | pKi (factor Xa [1]) | also measured
CC(C)(C)OC(=O)N1CCN(CCNC(=O)[C@@H](NC(=O)C(Cc2ccc(C(=N)N)cc2)C(=O)NCc2ccccc2)C2CCCCC2)CC1.O=C(O)C(F)(F)F (stereo partly drawn) | 125 to 128 °C |  | 
N=C(N)c1ccc(CC(C(=O)NCc2ccccc2)C(=O)N[C@H](C(=O)NCCN2CCNCC2)C2CCCCC2)cc1.O=C(O)C(F)(F)F (stereo partly drawn) | 196 °C (dec.) |  | 
TAP: tick anticoagulant peptide, isolated from the tick Ornithodoros moubata, contains 60 amino acids; inhibitor of factor Xa (YNRLCIKPRDWIDECDSNEGGERAYFRNGKGGCDSFWICPEDHTGADYYSSYRDCFNACI; UniProt P17726 1-60, looked up) |  |  | pKi (factor Xa [2]): ~9.30
heparin |  |  | thrombin inactivated faster than factor Xa (thrombin and factor Xa): approximately 100 times

Further lines, with some results ahead:

melting point | pKi (factor Xa [1]) | Compound | also measured
 | 8.70 | CN(C)C(=O)C(Cc1ccc(C(=N)N)cc1)C(=O)N[C@H](C(=O)NCC1CCC(C(=N)N)CC1)C1CCCCC1 (stereo partly drawn) [Example 116, 2-(4-Carbamimidoyl-benzyl)-N-{(S)-[(4-carbamimidoyl-cyclohexylmethyl)-carbamoyl]-cyclohexyl-methyl}-N′,N′-dimethyl-malonamide] | 
 | 8.22 | CN(C)C(=N)c1ccc(CC(C(=O)NC(C(=O)NCC2CCC(C(=N)N(C)C)CC2)C2CCCCC2)C(=O)N(C)C)cc1 [Example 120, N-(S)-(Cyclohexyl-{[4-(N,N-dimethyl-carbamimidoyl)-cyclohexylmethyl]-carbamoyl}-methyl)-2-[4-(N,N-dimethyl-carbamimidoyl)-benzyl]-N′,N′-dimethyl-malonamide] | 
